Key:
Assay type in all cases: functional
UACC-257 = assay: Growth inhibition of human UACC257 cells after 48 hrs by sulforhodamine B assay; details: UACC-257, 48 h
U-251 = assay: Growth inhibition of human U251 cells after 48 hrs by sulforhodamine B assay; details: U-251, 48 h
KM12 = assay: Growth inhibition of human KM12 cells after 48 hrs by sulforhodamine B assay; details: KM12, 48 h
HOP-62 = assay: Growth inhibition of human HOP62 cells after 48 hrs by sulforhodamine B assay; details: HOP-62, 48 h
SK-MEL-28 = assay: Growth inhibition of human SK-MEL-28 cells after 48 hrs by sulforhodamine B assay; details: SK-MEL-28, 48 h
SF-295 = assay: Growth inhibition of human SF295 cells after 48 hrs by sulforhodamine B assay; details: SF-295, 48 h
SK-MEL-5 = assay: Growth inhibition of human SK-MEL-5 cells after 48 hrs by sulforhodamine B assay; details: SK-MEL-5, 48 h
NCI-H322M = assay: Growth inhibition of human NCI-H322M cells after 48 hrs by sulforhodamine B assay
NCI-H460 = assay: Growth inhibition of human NCI-H460 cells after 48 hrs by sulforhodamine B assay; details: NCI-H460, 48 h
HCT-15 = assay: Growth inhibition of human HCT15 cells after 48 hrs by sulforhodamine B assay; details: HCT-15, 48 h
MDA-MB-435 = assay: Growth inhibition of human MDA-MB-435 cells after 48 hrs by sulforhodamine B assay; details: MDA-MB-435, 48 h
[1] = Growth inhibition of human EKVX cells after 48 hrs by sulforhodamine B assay
SNB-75 = assay: Growth inhibition of human SNB75 cells after 48 hrs by sulforhodamine B assay; details: SNB-75, 48 h
SK-MEL-2 = assay: Growth inhibition of human SK-MEL-2 cells after 48 hrs by sulforhodamine B assay; details: SK-MEL-2, 48 h
[2] = Growth inhibition of human HCC2998 cells after 48 hrs by sulforhodamine B assay; details: HCC 2998, 48 h
SW-620 = assay: Growth inhibition of human SW620 cells after 48 hrs by sulforhodamine B assay; details: SW-620, 48 h
SF-539 = assay: Growth inhibition of human SF539 cells after 48 hrs by sulforhodamine B assay; details: SF-539, 48 h
HCT-116 = assay: Growth inhibition of human HCT116 cells after 48 hrs by sulforhodamine B assay; details: HCT-116, 48 h
SNB-19 = assay: Growth inhibition of human SNB19 cells after 48 hrs by sulforhodamine B assay; details: SNB-19, 48 h
SF-268 = assay: Growth inhibition of human SF268 cells after 48 hrs by sulforhodamine B assay; details: SF-268, 48 h
A549 = assay: Growth inhibition of human A549 cells after 48 hrs by sulforhodamine B assay; details: A549, 48 h
Malme-3M = assay: Growth inhibition of human MALME-3M cells after 48 hrs by sulforhodamine B assay
LOX IMVI = assay: Growth inhibition of human LOXIMVI cells after 48 hrs by sulforhodamine B assay
NCI-H23 = assay: Growth inhibition of human NCI-H23 cells after 48 hrs by sulforhodamine B assay; details: NCI-H23, 48 h
M14 = assay: Growth inhibition of human M14 cells after 48 hrs by sulforhodamine B assay; details: M14, 48 h
NCI-H522 = assay: Growth inhibition of human NCI-H522 cells after 48 hrs by sulforhodamine B assay; details: NCI-H522, 48 h
COLO 205 = assay: Growth inhibition of human COLO205 cells after 48 hrs by sulforhodamine B assay; details: COLO 205, 48 h
HT-29 = assay: Growth inhibition of human HT-29 cells after 48 hrs by sulforhodamine B assay; details: HT-29, 48 h
NCI-H226 = assay: Growth inhibition of human NCI-H226 cells after 48 hrs by sulforhodamine B assay; details: NCI-H226, 48 h

Work on Cn1n[n+](C)c2c1C(=O)c1ccccc1C2=O yielded a GI50 (UACC-257) of 1790 nM, a GI50 (U-251) of 1270 nM and a GI50 (KM12) of 790 nM. It also gave a GI50 (HOP-62) of 1540 nM, a GI50 (SK-MEL-28) of 1610 nM and a GI50 (SF-295) of 1050 nM. The GI50 (SK-MEL-5) was 380 nM, the GI50 (NCI-H322M) was 280 nM and the GI50 (NCI-H460) was 300 nM. The GI50 (HCT-15) was 1610 nM, the GI50 (MDA-MB-435) was 200 nM and the GI50 [1] was 1210 nM. The GI50 (SNB-75) was 1680 nM, the GI50 (SK-MEL-2) was 1570 nM and the GI50 [2] was 1240 nM. The GI50 (SW-620) was 1150 nM, the GI50 (SF-539) was 1350 nM and the GI50 (HCT-116) was 680 nM. It also gave a GI50 (SNB-19) of 1590 nM, a GI50 (SF-268) of 950 nM and a GI50 (A549) of 320 nM. It also gave a GI50 (Malme-3M) of 150 nM, a GI50 (LOX IMVI) of 500 nM and a GI50 (NCI-H23) of 620 nM. For the same compound, the GI50 (M14) was 680 nM, the GI50 (NCI-H522) was 1410 nM and the GI50 (COLO 205) was 1010 nM. It also gave a GI50 (HT-29) of 1140 nM and a GI50 (NCI-H226) of 510 nM.

From ChEMBL document CHEMBL2434953, “Safe and easy route for the synthesis of 1,3-dimethyl-1,2,3-triazolium salt and investigation of its anticancer activities” (2013)
